From paper PMC7736581, “Activation of the IRE1 RNase through remodeling of the kinase front pocket by ATP-competitive ligands” (Nature Communications, 2020)

Experiments:
Assay in all cases: biochemical
Design in all cases: Invitrogen kinase panel: Z'Lyte activity (ATP at Km) or LanthaScreen competitive ATP-site binding, percent inhibition
[1] = molecular target: T1, IRE2 (Homo sapiens, UniProt Q76MJ5)
T1 construct: gene ERN2

[2] = molecular target: WNK2 (Homo sapiens, UniProt Q9Y3S1)
[3] = molecular target: T2, CK1_alpha1 (Homo sapiens, UniProt P48729)
T2 construct: gene CSNK1A1

[4] = molecular target: AKT2 (Homo sapiens, UniProt P31751)
[5] = molecular target: PLK2 (Homo sapiens, UniProt Q9NYY3)
[6] = molecular target: CLK2 (Homo sapiens, UniProt P49760)
[7] = molecular target: Blk (Homo sapiens, UniProt P51451)
[8] = molecular target: T3, MYLK3(caMLCK) (Homo sapiens, UniProt Q32MK0)
T3 construct: caMLCK

[9] = molecular target: MAP4K4 (Homo sapiens, UniProt O95819)
[10] = molecular target: EphA1 (Homo sapiens, UniProt P21709)
[11] = molecular target: CLK3 (Homo sapiens, UniProt P49761)
[12] = molecular target: T4, JNK1_alpha1 (Homo sapiens, UniProt P45983)
T4 construct: gene MAPK8; isoform alpha1

[13] = molecular target: SPHK1 (Homo sapiens, UniProt Q9NYA1)
[14] = molecular target: SGK3 (Homo sapiens, UniProt Q96BR1)
[15] = molecular target: T5, DCAMKL2 (Homo sapiens, UniProt Q8N568)
T5 construct: gene DCLK2

[16] = molecular target: TNK2 (Homo sapiens, UniProt Q07912)
[17] = molecular target: NEK4 (Homo sapiens, UniProt P51957)
[18] = molecular target: MKNK2 (Homo sapiens, UniProt Q9HBH9)
[19] = molecular target: PAK3 (Homo sapiens, UniProt O75914)
[20] = molecular target: BrSK1 (Homo sapiens, UniProt Q8TDC3)
[21] = molecular target: T6, Ros (Homo sapiens, UniProt P08922)
T6 construct: gene ROS1

[22] = molecular target: T7, MSSK1 (Homo sapiens, UniProt Q9UPE1)
T7 construct: gene SRPK3

[23] = molecular target: T8, PKG1_alpha (Homo sapiens, UniProt Q13976)
T8 construct: gene PRKG1; isoform alpha

[24] = molecular target: T9, TSSK1 (Homo sapiens, UniProt Q9BXA7)
T9 construct: gene TSSK1B

[25] = molecular target: T10, CamKIV (Homo sapiens, UniProt Q16566)
T10 construct: gene CAMK4
T10 sequence (Q16566 whole entry): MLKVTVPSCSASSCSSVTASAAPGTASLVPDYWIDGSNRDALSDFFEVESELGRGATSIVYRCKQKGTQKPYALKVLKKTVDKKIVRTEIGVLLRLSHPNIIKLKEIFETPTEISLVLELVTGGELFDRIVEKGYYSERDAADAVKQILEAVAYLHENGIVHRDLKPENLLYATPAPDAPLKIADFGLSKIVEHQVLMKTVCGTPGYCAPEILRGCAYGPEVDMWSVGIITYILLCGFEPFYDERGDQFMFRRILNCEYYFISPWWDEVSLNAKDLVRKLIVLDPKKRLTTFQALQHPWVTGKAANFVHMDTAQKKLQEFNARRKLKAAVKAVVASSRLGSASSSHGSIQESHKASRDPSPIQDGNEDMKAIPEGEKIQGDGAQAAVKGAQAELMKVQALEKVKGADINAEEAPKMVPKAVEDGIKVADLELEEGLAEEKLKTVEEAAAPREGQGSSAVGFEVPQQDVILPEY

BrSK1, sequence (Q8TDC3 whole entry): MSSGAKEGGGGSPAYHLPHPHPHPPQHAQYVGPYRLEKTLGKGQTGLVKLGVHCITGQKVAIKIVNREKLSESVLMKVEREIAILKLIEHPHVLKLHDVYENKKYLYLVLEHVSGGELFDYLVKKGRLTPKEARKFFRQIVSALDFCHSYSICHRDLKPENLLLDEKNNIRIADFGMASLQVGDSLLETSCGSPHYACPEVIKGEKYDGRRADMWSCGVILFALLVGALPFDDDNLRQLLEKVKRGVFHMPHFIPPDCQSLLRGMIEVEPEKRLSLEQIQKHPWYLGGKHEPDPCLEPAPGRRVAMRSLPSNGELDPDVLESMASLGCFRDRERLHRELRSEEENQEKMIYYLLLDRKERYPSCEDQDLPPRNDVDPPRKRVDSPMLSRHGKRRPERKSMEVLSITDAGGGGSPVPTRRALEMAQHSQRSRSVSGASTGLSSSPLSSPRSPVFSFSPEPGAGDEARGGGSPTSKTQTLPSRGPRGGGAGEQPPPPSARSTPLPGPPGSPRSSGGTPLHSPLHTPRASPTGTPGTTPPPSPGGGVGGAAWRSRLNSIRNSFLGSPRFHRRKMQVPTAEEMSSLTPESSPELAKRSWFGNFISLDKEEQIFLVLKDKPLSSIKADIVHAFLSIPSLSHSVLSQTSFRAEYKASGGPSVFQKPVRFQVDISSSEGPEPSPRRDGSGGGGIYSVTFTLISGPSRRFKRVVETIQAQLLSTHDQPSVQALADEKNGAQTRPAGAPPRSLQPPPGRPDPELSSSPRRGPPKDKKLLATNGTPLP
T4 sequence (P45983 whole entry, canonical isoform): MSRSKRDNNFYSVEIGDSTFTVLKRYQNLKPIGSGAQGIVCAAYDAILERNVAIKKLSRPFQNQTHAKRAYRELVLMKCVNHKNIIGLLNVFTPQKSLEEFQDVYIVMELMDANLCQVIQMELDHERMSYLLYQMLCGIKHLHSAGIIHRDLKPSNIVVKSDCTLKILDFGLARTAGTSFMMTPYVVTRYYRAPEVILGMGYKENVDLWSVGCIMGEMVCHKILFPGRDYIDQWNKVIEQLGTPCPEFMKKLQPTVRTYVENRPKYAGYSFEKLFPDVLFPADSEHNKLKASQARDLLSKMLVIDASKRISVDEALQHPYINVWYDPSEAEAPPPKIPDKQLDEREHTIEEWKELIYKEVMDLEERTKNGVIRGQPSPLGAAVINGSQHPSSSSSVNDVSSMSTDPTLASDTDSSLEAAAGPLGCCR
T3 sequence (Q32MK0 whole entry): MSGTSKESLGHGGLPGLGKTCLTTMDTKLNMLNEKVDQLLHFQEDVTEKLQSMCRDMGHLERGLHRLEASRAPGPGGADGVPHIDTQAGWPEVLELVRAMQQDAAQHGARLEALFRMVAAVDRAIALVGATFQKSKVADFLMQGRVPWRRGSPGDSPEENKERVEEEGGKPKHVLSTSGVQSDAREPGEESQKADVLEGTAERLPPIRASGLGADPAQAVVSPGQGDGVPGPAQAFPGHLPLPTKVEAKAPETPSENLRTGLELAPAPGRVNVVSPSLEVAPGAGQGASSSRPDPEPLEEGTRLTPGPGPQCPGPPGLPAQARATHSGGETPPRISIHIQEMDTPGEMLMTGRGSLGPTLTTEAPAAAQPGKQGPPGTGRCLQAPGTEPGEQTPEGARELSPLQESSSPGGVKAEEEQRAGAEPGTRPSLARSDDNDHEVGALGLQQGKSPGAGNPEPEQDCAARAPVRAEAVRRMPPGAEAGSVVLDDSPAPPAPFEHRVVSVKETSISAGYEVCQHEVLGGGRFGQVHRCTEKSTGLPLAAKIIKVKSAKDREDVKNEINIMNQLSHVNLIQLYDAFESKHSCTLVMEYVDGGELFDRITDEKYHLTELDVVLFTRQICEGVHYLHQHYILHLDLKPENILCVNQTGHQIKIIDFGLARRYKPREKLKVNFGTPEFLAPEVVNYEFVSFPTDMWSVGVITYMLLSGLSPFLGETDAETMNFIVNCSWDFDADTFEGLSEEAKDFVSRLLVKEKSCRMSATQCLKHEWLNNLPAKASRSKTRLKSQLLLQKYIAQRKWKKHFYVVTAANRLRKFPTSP
T1 sequence (Q76MJ5 whole entry): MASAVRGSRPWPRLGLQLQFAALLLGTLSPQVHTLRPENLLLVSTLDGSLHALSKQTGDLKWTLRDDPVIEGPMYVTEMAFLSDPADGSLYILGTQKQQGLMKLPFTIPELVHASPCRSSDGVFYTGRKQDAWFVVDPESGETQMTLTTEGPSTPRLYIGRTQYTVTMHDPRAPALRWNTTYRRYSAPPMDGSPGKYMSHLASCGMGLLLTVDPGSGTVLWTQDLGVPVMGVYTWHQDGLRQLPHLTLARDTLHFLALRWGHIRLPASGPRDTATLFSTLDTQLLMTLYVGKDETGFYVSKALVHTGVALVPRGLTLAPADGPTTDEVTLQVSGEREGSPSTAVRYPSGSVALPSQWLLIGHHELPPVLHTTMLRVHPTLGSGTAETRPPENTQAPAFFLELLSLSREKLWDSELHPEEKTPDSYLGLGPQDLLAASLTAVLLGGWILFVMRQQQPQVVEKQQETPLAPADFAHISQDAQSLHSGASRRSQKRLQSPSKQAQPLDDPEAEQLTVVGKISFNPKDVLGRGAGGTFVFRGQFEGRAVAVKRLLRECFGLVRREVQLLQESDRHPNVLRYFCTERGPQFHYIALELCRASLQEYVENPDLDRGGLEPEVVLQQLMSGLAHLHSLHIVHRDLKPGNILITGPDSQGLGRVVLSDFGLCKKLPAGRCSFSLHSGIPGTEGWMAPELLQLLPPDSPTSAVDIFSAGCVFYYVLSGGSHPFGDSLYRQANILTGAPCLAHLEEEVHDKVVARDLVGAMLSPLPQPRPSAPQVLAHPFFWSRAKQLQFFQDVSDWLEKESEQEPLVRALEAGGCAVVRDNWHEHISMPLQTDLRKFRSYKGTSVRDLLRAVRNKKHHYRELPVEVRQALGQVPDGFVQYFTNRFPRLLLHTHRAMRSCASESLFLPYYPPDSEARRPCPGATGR
T5 sequence (Q8N568 whole entry): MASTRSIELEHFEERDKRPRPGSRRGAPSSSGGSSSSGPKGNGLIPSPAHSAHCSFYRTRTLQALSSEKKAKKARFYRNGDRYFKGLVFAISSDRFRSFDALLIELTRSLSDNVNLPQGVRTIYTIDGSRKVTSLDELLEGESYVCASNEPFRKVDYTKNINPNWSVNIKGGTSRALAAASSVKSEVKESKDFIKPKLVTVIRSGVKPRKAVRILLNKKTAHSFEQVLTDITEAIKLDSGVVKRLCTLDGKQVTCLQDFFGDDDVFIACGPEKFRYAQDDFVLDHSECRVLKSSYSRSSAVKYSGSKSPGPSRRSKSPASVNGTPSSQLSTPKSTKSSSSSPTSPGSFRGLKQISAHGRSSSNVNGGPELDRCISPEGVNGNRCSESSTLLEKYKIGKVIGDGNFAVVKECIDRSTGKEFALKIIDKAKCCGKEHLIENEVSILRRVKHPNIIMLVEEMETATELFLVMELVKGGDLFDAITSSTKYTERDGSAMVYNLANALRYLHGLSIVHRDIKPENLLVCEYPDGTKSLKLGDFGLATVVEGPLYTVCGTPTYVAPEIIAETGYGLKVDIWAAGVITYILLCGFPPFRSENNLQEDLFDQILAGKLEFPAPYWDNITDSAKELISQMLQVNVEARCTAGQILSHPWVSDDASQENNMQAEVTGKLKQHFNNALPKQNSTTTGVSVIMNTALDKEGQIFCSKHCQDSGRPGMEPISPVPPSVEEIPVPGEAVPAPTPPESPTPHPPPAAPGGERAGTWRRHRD
MKNK2, sequence (Q9HBH9 whole entry): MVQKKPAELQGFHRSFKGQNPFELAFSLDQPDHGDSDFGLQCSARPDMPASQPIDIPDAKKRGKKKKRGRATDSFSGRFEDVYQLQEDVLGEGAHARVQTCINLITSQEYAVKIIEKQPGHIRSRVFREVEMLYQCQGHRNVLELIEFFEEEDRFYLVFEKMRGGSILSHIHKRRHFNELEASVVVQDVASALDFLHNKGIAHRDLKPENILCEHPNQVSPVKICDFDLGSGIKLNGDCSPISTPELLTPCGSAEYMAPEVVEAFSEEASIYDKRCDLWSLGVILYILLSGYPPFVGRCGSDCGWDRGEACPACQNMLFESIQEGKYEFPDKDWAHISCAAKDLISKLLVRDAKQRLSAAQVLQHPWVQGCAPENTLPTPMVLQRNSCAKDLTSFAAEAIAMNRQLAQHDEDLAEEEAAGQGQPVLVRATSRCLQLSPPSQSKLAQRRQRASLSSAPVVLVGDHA
T2 sequence (P48729 whole entry): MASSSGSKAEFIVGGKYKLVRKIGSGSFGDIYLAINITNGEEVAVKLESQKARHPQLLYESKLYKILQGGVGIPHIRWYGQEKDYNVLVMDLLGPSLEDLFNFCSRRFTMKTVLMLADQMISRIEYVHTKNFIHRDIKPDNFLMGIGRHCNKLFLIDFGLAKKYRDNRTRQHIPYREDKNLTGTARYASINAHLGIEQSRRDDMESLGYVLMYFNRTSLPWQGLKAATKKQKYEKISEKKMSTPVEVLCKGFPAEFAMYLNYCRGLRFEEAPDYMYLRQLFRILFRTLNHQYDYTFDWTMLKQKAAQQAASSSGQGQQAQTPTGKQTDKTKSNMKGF

Row | SMILES | inhibition at 1 µM [1] [%] | inhibition at 1 µM [2] [%] | inhibition at 1 µM [3] [%] | inhibition at 1 µM [4] [%] | inhibition at 1 µM [5] [%] | inhibition at 1 µM [6] [%] | inhibition at 1 µM [7] [%] | inhibition at 1 µM [8] [%] | inhibition at 1 µM [9] [%] | inhibition at 1 µM [10] [%] | inhibition at 1 µM [11] [%] | inhibition at 1 µM [12] [%] | inhibition at 1 µM [13] [%] | inhibition at 1 µM [14] [%] | inhibition at 1 µM [15] [%] | inhibition at 1 µM [16] [%] | inhibition at 1 µM [17] [%] | inhibition at 1 µM [18] [%] | inhibition at 1 µM [19] [%] | inhibition at 1 µM [20] [%] | further results
1 | CCOC(=O)Nc1cccc2c(Oc3ncccc3-c3ccnc(N[C@H]4CCCNC4)n3)c(C)ccc12 [G-1749] | 9.5 | -1 | -1.5 | 6 | 3 | 18.5 | 10 | 10.5 | 31 | 7 | 7 | 53.5 | 14.5 | -5.5 | 3 | 1 | 6 | 3.5 | 6.5 | 6.5 | inhibition at 1 µM [21]: 7%; inhibition at 1 µM [22]: -1.5%; inhibition at 1 µM [23]: 1%; inhibition at 1 µM [24]: 8.5%; inhibition at 1 µM [25]: -1.5%
2 | CC#CC(=O)Nc1cccc2c(Oc3ncccc3-c3ccnc(N[C@H]4CCCNC4)n3)c(C)ccc12 [G-7658] | 5.5 | -2.5 | -0.5 | 4 | 3 | 23 | 7.5 | 4.5 | 21.5 | 6 | 11.5 | 72.5 | -5 | -2 | 2 | 2 | 5.5 | -2 | 5 | 4.5 | inhibition at 1 µM [21]: 8%; inhibition at 1 µM [22]: 7%; inhibition at 1 µM [23]: 3.5%; inhibition at 1 µM [24]: 7.5%; inhibition at 1 µM [25]: -2.5%
